The results in this text go back to article PMC4490768 (Cellular signalling, 2011).

The experiment addresses T1, ALK2ca T283S (constitutively active ALK2) (Homo sapiens, UniProt Q04771, Q207D/T283S).
T1 sequence (Q04771 21-509 Q207D/T283S): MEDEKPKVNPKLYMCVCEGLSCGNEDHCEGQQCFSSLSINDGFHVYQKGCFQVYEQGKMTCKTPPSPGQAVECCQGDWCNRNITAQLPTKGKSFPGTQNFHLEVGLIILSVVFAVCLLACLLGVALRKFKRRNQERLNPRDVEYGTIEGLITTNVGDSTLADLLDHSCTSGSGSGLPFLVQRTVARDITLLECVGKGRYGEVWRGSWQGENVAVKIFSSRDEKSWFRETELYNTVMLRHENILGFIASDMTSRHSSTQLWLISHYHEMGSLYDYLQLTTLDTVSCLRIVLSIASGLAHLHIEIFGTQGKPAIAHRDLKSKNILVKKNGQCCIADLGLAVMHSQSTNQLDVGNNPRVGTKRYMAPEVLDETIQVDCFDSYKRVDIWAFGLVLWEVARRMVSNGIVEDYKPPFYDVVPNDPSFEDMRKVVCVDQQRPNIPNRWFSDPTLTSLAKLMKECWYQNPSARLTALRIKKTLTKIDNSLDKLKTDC
The experiment can be described thus: BRE2-luc luciferase reporter in NIH-3T3 cells expressing ALK2ca T283S. The experiment is classed as cell-based.

In the case of `NC(=O)c1ccc(-c2nc(-c3ccc4c(c3)OCO4)c(-c3ccccn3)[nH]2)cc1` [SB431542], the EC50 was determined as 2500 nM.

Usually EC50 stands for the concentration that produces a half-maximal response.
